# Source: the Biogen ADME set (Fang et al. 2023)
# Details: for aqueous solubility: pH 6.8
SMILES,aqueous solubility [µg/mL],MDR1-MDCK efflux ratio,"intrinsic clearance, human liver microsomes [mL/min/kg]","intrinsic clearance, rat liver microsomes [mL/min/kg]","fraction unbound, human plasma","fraction unbound, rat plasma"
CC1=NC(Nc2nc(C)c3ccccc3n2)=NC(C)(C)C1,0.66,–,–,–,–,–
O=C(O)c1nc(-c2ccccc2)oc1-c1ccccc1,40.8,0.802,6.99,≤ 10.7,–,–
Cn1nc(-c2cc(F)cc(F)c2)cc1N,–,0.607,43.8,48.7,–,–
CC(C)N1CC[C@H](c2nnc(-c3cncn3C)o2)C1,39.3,–,≤ 4.74,79.2,–,–
CN(C)CC(C)(C)CNc1cn[nH]c(=O)c1Br,–,0.676,8.54,43.9,–,–
C[C@@H]1CN(C(=O)CC(c2ccccc2)c2ccccc2)C[C@H](C)O1,52.3,1.31,36.4,1900,0.154,0.0523
COc1ccc(CN(C)C(=O)Nc2ccccc2)cc1F,45.9,0.669,18.2,644,–,–
COC(=O)[C@@H]1C[C@H](O)CN1CCc1ccccc1F,56.8,0.726,–,3370,–,–
c1ccc(OCc2nc3cc4ccccc4cc3[nH]2)cc1,0.29,0.257,–,–,–,–
C[C@@H](/C=C\C(F)(F)F)Oc1cc(-c2cc(-c3cc(CN(C)C)cs3)cnc2N)ccc1C(N)=O,21.2,32.7,20.5,157,–,–
CC1(C)OCCn2c1nc1c(N3CCOCC3)nc(-c3cnc(N)nc3)nc12,6.44,1.31,6.14,26,–,–
O=C(c1ccccc1-c1ncc(-c2ccccc2F)o1)N1CCC1,43.6,0.659,35.1,456,–,–
CN(Cc1ccccn1)c1nc2ccccc2o1,37.8,0.718,15,361,–,–
CN1CCc2ncnc(N3CCCN(c4nccs4)CC3)c2C1,43.2,4.76,23.3,131,–,–
Cc1ncsc1-c1nc(CNc2cc(F)cc(F)c2)no1,–,–,65.7,661,–,–
Oc1ccc(-c2noc(-c3cccnc3)n2)cc1,5.03,–,25.1,79.3,–,–
O=C(CCc1cnn(-c2ccccc2)c1)N1CCC(n2c(=O)[nH]c3ccccc32)CC1,–,–,567,3770,–,–
CN(C(=O)c1cncc(F)c1)c1cccc2ncccc12,61.8,2.74,22.2,134,–,–
Cn1c(=O)n(-c2ccc(C(C)(C)C#N)cc2)c2c3cc(-c4cnc5ccccc5c4)ccc3ncc21,–,–,67.3,91.3,–,–
O=C(Cc1csc(-c2ccc(F)c(F)c2)n1)NCC(F)(F)F,0.36,–,–,–,–,–
CC(C)(O)CNc1nc(Nc2ccnc(C(F)(F)F)c2)nc(-c2cccc(C(F)(F)F)n2)n1,0.14,24.8,–,–,–,–
CCc1nc2ccc(C(=O)NCc3ccccc3)cc2nc1CC,2.15,–,101,943,–,–
CC(C)NC(=O)c1cn(-c2ccccc2)nc1-c1ccccc1,0.22,0.459,–,–,–,–
CCC1=C(C)CN(C(=O)NCCc2ccc(S(=O)(=O)NC(=O)N[C@H]3CC[C@H](C)CC3)cc2)C1=O,–,68.6,19.2,305,0.00066,0.00023
c1cnc2c(Oc3ncnc4sccc34)cccc2c1,–,–,44.3,244,–,–
CC(=O)Nc1ccc(C(=O)N2CCCCC2c2nc(N)ncc2-c2cccc(Cl)c2)cc1 (stereo unspecified),57.5,98,53.3,651,0.0331,0.0384
C=CC(=O)Nc1cccc(Nc2nc(Nc3ccc(OCCOC)cc3)ncc2F)c1,3.8,3.94,32.1,391,–,–
C#Cc1cccc(N(CCC(=O)NC(N)=O)Cc2cccs2)c1,–,1.88,51.4,1070,–,–
CNCC(=O)Nc1cc(Cl)c(OCCOC)c(Cl)c1,87.3,–,–,–,–,–
